Paper PMC6061685 (Toxicological Sciences, 2018)
Entries after “also recorded” stand apart in the source; their conditions may differ. Like-named read-outs stand apart in the source and are kept apart here.

How the values were obtained:
ERα [1] = details: 10 mg/kg bw/day; ref Kummer et al. (2008); cited from earlier work
AR [2] = details: exposure 0–100 µM; ref Kizu et al. (2003); cited from earlier work
ERα [3] = details: exposure 0–10 µM; ref Charles et al. (2000); cited from earlier work
AR [4] = details: exposure 0–10 µM; ref Vinggaard et al. (2000); cited from earlier work
[5] = molecular target: T1, aryl hydrocarbon receptor (AhR) (Rattus norvegicus, UniProt P41738); experiment: H4IIE AhR CALUX agonist assay; type: cell-based
T1 sequence (P41738 10-853): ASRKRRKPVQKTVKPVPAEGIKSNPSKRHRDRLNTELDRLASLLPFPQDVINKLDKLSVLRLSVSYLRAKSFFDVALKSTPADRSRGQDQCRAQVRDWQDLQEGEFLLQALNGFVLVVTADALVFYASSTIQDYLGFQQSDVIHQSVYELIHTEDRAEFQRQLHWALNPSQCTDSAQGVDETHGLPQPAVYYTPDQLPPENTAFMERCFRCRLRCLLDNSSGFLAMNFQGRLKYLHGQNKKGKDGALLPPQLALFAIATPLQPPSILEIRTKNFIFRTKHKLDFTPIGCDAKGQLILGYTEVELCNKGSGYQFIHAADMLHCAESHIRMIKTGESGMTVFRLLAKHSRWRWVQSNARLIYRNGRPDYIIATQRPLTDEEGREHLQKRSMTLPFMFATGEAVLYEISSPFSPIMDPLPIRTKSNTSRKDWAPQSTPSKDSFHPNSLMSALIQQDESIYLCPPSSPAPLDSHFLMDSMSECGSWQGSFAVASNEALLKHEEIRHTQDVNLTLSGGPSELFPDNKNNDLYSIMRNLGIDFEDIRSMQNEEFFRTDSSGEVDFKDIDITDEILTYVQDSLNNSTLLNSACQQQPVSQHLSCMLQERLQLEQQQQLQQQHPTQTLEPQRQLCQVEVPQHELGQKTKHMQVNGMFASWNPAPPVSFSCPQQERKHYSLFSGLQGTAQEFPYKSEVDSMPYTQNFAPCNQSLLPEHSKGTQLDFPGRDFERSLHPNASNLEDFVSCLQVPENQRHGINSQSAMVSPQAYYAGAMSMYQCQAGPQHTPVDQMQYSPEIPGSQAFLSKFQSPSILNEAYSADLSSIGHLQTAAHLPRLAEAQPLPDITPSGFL

[6] = molecular target: T2, estrogen receptor alpha (ERα) (Homo sapiens, UniProt P03372); experiment: U2OS ERα CALUX antagonist assay; type: cell-based; details: 24 h exposure; with EC50 concentration of E2 (2.7 × 10^−6 µg/ml)
T2 sequence (P03372 1-595): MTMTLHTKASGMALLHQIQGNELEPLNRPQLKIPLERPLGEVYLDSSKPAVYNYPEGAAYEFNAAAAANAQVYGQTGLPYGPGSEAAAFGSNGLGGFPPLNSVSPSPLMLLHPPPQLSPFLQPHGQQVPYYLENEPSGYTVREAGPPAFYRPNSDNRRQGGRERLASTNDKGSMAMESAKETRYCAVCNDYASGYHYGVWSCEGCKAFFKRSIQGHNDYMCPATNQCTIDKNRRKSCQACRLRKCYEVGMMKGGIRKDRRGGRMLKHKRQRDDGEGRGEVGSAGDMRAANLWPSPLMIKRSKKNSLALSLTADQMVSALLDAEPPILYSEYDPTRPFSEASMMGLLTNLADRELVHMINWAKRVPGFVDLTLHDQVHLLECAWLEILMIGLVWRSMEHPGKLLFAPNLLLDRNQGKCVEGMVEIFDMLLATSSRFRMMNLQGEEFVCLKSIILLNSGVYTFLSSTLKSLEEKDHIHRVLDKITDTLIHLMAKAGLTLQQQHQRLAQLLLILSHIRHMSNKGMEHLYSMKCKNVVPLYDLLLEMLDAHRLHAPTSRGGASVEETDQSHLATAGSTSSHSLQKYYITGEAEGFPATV

Compound | Effects on AR (AR [2]) | Effects on AR (AR [4]) | other results
c1ccc2cc3c(cc2c1)-c1cccc2cccc-3c12 [Benzo[k]fluoranthene] | AR antagonist (except for anthracene and pyrene) | – | Effects on ERα (ERα [1]): Benzo[k]fluoranthene shows no ERα-mediated activity.
Oc1ccc2cc3ccc4cccc5ccc(c2c1)c3c45 [9OH-BaP] | – | – | Effects on ERα (ERα [3]): Hydroxy metabolites of BaP, including 3OH-BaP, 9OH-BaP, and 9, 10OH-BaP, act as ERα agonist.
c1ccc2c(c1)cc1ccc3cccc4ccc2c1c34 [BaP, benzo[a]pyrene, reference compound] | AR antagonist (except for anthracene and pyrene) | AR antagonist | EC50 [5]: 12.3 nM
C[C@]12CC[C@@H]3c4ccc(O)cc4C[C@@H](CCCCCCCCC[S+]([O-])CCCC(F)(F)C(F)(F)F)[C@H]3[C@@H]1CC[C@@H]2O (some centres unmarked) [Fulvestrant, fulvestrant] | – | – | ERα Antagonist Assay IC25 [6]: 0.011 ng/mL
c1ccc2cc3c(ccc4ccccc43)cc2c1 [Benz[a]anthracene] | – | AR antagonist | –
Oc1ccc2ccc3c4ccccc4cc4ccc1c2c43 [3OH-BaP] | – | – | Effects on ERα (ERα [3]): Hydroxy metabolites of BaP, including 3OH-BaP, 9OH-BaP, and 9, 10OH-BaP, act as ERα agonist.
c1ccc2c(c1)-c1cccc3cccc-2c13 [Fluoranthene] | – | AR antagonist | Effects on ERα (ERα [1]): ERα agonist (except for Benzo[k]fluoranthene)
Cc1c2ccccc2c(C)c2c1ccc1ccccc12 [7, 12-dimethylbenz[a]anthracene] | – | AR antagonist | –
c1cc2ccc3cccc4ccc(c1)c2c34 [Pyrene] | Anthracene and Pyrene show no AR-mediated activity. | AR antagonist; also recorded: Phenanthrene, Anthracene, Pyrene: antagonize the AR activity just at the highest tested concentration | –
c1ccc2c(c1)ccc1ccccc12 [Phenanthrene] | – | AR antagonist; also recorded: Phenanthrene, Anthracene, Pyrene: antagonize the AR activity just at the highest tested concentration | –
c1ccc2cc3ccccc3cc2c1 [Anthracene] | Anthracene and Pyrene show no AR-mediated activity. | AR antagonist; also recorded: Phenanthrene, Anthracene, Pyrene: antagonize the AR activity just at the highest tested concentration | –
